Laboratory results published in patent US9452170B2, “Compounds and methods for inducing chondrogenesis” (The California Institute for Biomedical Research, priority 2013, dated 2016).

Test system: Human MSCs
Assay: Human chondrocyte differentiation assay (immunostaining for type II collagen, Sox9 and COMP)
Assay type: cell-based
Conditions: 168 h, compound 1 μM, 7 days, vs DMSO vehicle, read-out: Biological Activity (increase in staining intensity compared to vehicle control)
Description: Human MSCs (50,000) were plated into each well of a 96-well plate and cultured overnight. Compounds (in DMSO solution) were added to the cells at a final concentration of 1 μM, and the cells were cultured for 7 days at 5% CO2, 37° C. The cells were fixed with 10% formalin solution at room temperature for 10 min, and immunostained using antibodies specific for type II collagen (Abcam), Sox9 (Santa Cruz) and cartilage oligomeric matrix protein (COMP, Santa Cruz), and fluorescently labeled secondary antibodies (Li-Cor). The total intensity of the staining was measured using Oddyssey CLx imaging system (Li-Cor). Vehicle (DMSO) was used as control to determine the basal level of chondrocyte differentiation. […] Representative data are shown in Table 1 [A: >50% increase in staining intensity compared to vehicle control; B: 30-50% increase in staining intensity compared to vehicle control].

Row | SMILES | activation at 1 µM [%]
1 | N#Cc1ccc(Cl)c(NC(=O)c2ccccc2C(=O)O)c1 [Compound 1] | 30 to 50
2 | N#Cc1cc(NC(=O)c2ccccc2C(=O)O)ccc1Cl [Compound 2] | 30 to 50
3 | N#Cc1cc(Cl)cc(NC(=O)c2ccccc2C(=O)O)c1 [Compound 3] | > 50
4 | CC(=O)c1ccc(Cl)c(NC(=O)c2ccccc2C(=O)O)c1 [Compound 4] | > 50
5 | CC(=O)c1cc(NC(=O)c2ccccc2C(=O)O)ccc1Cl [Compound 5] | 30 to 50
6 | COc1ccc(C#N)cc1NC(=O)c1ccccc1C(=O)O [Compound 6] | > 50
7 | COc1ccc(NC(=O)c2ccccc2C(=O)O)cc1C#N [Compound 7] | > 50
8 | N#Cc1cc(Cl)ccc1NC(=O)c1ccccc1C(=O)O [Compound 8] | 30 to 50
9 | N#Cc1cc(NC(=O)c2ccccc2C(=O)O)cc(C(F)(F)F)c1 [Compound 9] | > 50
10 | O=C(O)c1ccccc1C(=O)Nc1ccc(C(F)(F)F)c(F)c1 [Compound 10] | 30 to 50
11 | O=C(O)c1ccccc1C(=O)Nc1ccc(Cl)cc1C(F)(F)F [Compound 11] | 30 to 50
12 | O=C(O)c1ccccc1C(=O)Nc1cc(Cl)cc(C(F)(F)F)c1 [Compound 12] | 30 to 50
13 | Cc1ccc(NC(=O)c2ccccc2C(=O)O)c(C#N)c1 [Compound 13] | 30 to 50
14 | CC(=O)c1ccc(OC(F)F)c(NC(=O)c2ccccc2C(=O)O)c1 [Compound 14] | 30 to 50
15 | NS(=O)(=O)c1ccc(N2C(=O)c3ccccc3C2=O)cc1 [Compound 15] | 30 to 50
16 | COc1ccc2c(c1)C(=O)N(c1ccc(C(=O)O)cc1)C2=O [Compound 16] | > 50
17 | O=C(O)c1ccccc1C(=O)Nc1ccccc1OC(F)(F)F [Compound 17] | 30 to 50
18 | O=C(O)c1ccccc1C(=O)Nc1cccc(C(F)(F)F)c1 [Compound 18] | > 50
19 | O=C(O)c1ccccc1C(=O)Nc1cccc(OC(F)(F)F)c1 [Compound 19] | > 50

Row | SMILES | activation at 1 µM [%]
20 | Cc1ncsc1NC(=O)c1ccccc1C(=O)O [Compound 22] | 30 to 50
21 | CC(C(=O)c1ccc(C#N)cc1)C1OC(=O)c2ccccc21 (centres unmarked) [Compound 23] | > 50
22 | N#Cc1ccc(C(=O)CC2NC(=O)c3ccccc32)cc1 (centres unmarked) [Compound 24] | > 50
23 | N#Cc1ccc(C(=O)CC2OC(=O)c3ccccc32)cc1 (centres unmarked) [Compound 25] | 30 to 50
24 | NS(=O)(=O)c1ccc(N2Cc3ccccc3C2=O)cc1 [Compound 26] | 30 to 50
25 | CNS(=O)(=O)c1ccc(N2CCCC2=O)cc1 [Compound 28] | 30 to 50
26 | O=C(O)c1ccccc1C(=O)Nc1nccs1 [Compound 29] | 30 to 50
27 | CC(=O)c1ccc(F)c(NC(=O)c2ccccc2C(=O)O)c1 [Compound 30] | 30 to 50
28 | CC(=O)c1cc(NC(=O)c2ccccc2C(=O)O)ccc1F [Compound 31] | 30 to 50
29 | CC(C)(CO)c1ccc(NC(=O)c2ccccc2C(=O)O)cc1 [Compound 32] | 30 to 50
30 | Cc1ccc2c(c1)C(=O)N(c1ccc(C(=O)O)cc1)C2=O [Compound 33] | 30 to 50
31 | N#Cc1ccc(F)c(NC(=O)c2ccccc2C(=O)O)c1 [Compound 34] | 30 to 50
32 | N#Cc1cccc(NC(=O)c2ccccc2C(=O)O)c1F [Compound 35] | 30 to 50
33 | N#Cc1cc(NC(=O)c2ccccc2C(=O)O)ccc1F [Compound 36] | 30 to 50
34 | N#Cc1cc(F)cc(NC(=O)c2ccccc2C(=O)O)c1 [Compound 37] | > 50
35 | CS(=O)(=O)c1cccc(NC(=O)c2ccccc2C(=O)O)c1 [Compound 38] | 30 to 50
36 | N#Cc1cccc(C(=O)CC2NC(=O)c3ccccc32)c1 (centres unmarked) [Compound 39] | 30 to 50
37 | N#Cc1ccccc1C(=O)CC1OC(=O)c2ccccc21 (centres unmarked) [Compound 40] | 30 to 50
38 | O=C(CC1OC(=O)c2ccccc21)c1ccccc1Cl (centres unmarked) [Compound 41] | > 50
